# Measurements from ChEMBL document CHEMBL1201862, “PubChem BioAssay data set” (2004).
# Active and inactive are the calls of the source.
# How the values were obtained:
# [1] = target: Ras and Rab interactor 1/Tyrosine-protein kinase ABL1 (Homo sapiens, UniProt P00519+Q13671); type: functional;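 also: biochemical TR-FRET dose-response test measuring inhibition of binding between Rin1 and Abl proteins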
# [2] = target: T1, Apoptotic protease-activating factor 1 (Homo sapiens, UniProt O14727); experiment: SAR analysis of small molecule Activators of Apaf-1 in a Fluorescent assay.; type: functional; details: read-out: EC50_Mean
# T1 sequence (O14727 whole entry): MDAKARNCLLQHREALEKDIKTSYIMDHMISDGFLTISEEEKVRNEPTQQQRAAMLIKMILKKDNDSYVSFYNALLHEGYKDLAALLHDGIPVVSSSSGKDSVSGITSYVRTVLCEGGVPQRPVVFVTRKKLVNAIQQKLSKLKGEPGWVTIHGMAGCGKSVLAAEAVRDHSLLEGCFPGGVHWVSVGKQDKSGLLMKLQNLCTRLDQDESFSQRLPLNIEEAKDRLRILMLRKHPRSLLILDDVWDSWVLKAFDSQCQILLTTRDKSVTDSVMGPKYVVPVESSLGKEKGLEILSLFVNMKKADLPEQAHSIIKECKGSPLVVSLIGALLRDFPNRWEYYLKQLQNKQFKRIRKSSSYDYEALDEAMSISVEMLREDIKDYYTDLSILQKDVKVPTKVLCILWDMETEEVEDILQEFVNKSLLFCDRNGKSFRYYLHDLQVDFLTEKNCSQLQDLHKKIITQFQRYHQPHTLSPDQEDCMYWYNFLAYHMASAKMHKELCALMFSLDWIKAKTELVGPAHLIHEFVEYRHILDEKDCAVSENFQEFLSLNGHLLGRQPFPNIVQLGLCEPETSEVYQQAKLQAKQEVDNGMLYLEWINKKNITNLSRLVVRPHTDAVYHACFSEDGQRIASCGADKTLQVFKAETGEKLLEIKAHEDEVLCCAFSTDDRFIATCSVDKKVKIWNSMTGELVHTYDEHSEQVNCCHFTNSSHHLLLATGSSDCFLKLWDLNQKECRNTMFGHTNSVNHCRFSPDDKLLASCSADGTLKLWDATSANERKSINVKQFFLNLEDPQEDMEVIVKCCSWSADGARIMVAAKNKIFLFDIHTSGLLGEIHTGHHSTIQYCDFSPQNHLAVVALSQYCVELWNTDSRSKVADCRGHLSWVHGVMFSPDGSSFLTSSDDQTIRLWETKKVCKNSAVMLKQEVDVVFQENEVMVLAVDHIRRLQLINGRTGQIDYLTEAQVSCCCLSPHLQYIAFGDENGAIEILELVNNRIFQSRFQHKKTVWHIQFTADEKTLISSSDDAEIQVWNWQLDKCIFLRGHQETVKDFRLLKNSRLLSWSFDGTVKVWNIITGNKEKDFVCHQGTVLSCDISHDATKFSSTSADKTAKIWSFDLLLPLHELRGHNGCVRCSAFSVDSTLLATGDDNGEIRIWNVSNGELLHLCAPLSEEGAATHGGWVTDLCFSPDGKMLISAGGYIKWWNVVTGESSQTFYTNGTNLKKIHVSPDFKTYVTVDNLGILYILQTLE
# [3] = target: T2, Small ubiquitin-related modifier 1 (Homo sapiens, UniProt P63165); experiment: inhibitors of SUMO1 partner interactions, dose response, biochemical, FRET (AID 624383); type: functional; details: read-out: IC50_Mean
# T2 sequence (P63165 whole entry): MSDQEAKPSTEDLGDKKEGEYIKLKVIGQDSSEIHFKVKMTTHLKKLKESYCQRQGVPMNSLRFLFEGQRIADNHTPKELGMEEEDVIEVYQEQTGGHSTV
# [4] = target: T2, Small ubiquitin-related modifier 1; experiment: inhibitors of SUMO1 peptide binding, dose response, biochemical, fluorescence polarization, uHTS hits (AID 624382); type: functional; details: read-out: IC50_Mean
# [5] = test system: H9c2; experiment: cells; type: functional, cell-based; details: Rattus norvegicus, H9c2, Myocardium;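 also: confirmatory concentration-response retest of ultra-high-throughput screening hits for modulation of myocardial damage; cell death induced by hydrogen peroxide oxidative stress; compound pretreatment for 60 min then peroxide exposure for 2 h; potency is for protecting the cells against peroxide damage rather than for killing them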
# [6] = target: T3, Interleukin-8 (Homo sapiens, UniProt P10145); experiment: Dose Response confirmation of uHTS small molecule hits for cystic fibrosis induced NFkb Inhibitors in a PAF-induced IL8 counterscreen.; type: functional; details: read-out: IC50_Mean
# T3 sequence (P10145 whole entry): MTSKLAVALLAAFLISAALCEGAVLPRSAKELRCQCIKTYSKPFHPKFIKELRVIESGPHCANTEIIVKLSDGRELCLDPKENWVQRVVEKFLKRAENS
# [7] = target: T4, Ubiquitin-conjugating enzyme E2 N (Homo sapiens, UniProt P61088); type: functional
# T4 sequence (P61088 whole entry): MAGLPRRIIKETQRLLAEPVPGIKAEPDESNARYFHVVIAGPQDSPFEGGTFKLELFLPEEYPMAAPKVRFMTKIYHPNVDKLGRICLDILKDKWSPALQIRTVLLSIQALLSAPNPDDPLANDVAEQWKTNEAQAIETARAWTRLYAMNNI
# [8] = Luminescence Cell-Based Dose Retest to Confirm Inhibitors of Cancer Stem Cells. [Related pubchem assays (depositor defined):AID2717, AID2721]; type: functional; details: Homo sapiens
# [9] = target: T4, Ubiquitin-conjugating enzyme E2 N; type: functional; remark: listed apart in the source
# [10] = Shn3 3'UTR reporter inhibitors, dose response, cell-based, Clone20 osteoblasts, firefly luciferase, cherry-picked (AID 624132); type: functional;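 also: firefly luciferase luminescence from reporter carrying the Shn3 3'UTR in osteoblasts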
# [11] = target: T1, Apoptotic protease-activating factor 1; type: functional
# [12] = test system: INS1; experiment: beta cell apoptosis inhibitors, cytokine rescue, dose response, luminescence, retest (AID 449756); type: functional, cell-based; details: Rattus norvegicus;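 also: cell death triggered by IL-1 beta plus TNF-alpha plus IFN-gamma mixture; protective hits raise ATP signal compared with cytokine alone wells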
# [13] = target: T5, Bcl-2-related protein A1 (Mus musculus, UniProt Q07440); type: functional;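 also: confirmatory dose–response counterscreen on Bfl-1, used to check hits from a UBC13 polyubiquitin inhibitor campaign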
# T5 sequence (Q07440 whole entry): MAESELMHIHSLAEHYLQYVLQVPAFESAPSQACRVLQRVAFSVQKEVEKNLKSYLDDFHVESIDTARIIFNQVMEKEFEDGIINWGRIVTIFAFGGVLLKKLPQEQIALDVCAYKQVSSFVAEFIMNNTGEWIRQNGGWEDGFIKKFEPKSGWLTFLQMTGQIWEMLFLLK
# [14] = HepG2 cell cytotoxicity, dose response, cytotoxicity control for Shn3 inhibitor project, CellTiter-Glo, cherry-picked (AID 624134); type: functional, cell-based
# [15] = control 3'UTR Renilla luciferase suppression, dose response, counter-screen for Shn3 inhibitor project, cell-based, Clone20-Shn3RL, cherry-picked (AID 624133); type: functional
# [16] = test system: HEK293; experiment: inhibitors of LMP1-driven NF-kB reporter, dose response, cell-based, HEK293, luciferase, cherry-pick (AID 588343); type: functional; details: Homo sapiens
# [17] = target: T6, DNA repair and recombination protein RAD54-like (Homo sapiens, UniProt Q92698); experiment: inhibitors of human RAD54 branch migration, confirmation, biochemical, fluorescence, cherry-picked samples, dose series (AID 651657); type: functional
# T6 sequence (Q92698 whole entry): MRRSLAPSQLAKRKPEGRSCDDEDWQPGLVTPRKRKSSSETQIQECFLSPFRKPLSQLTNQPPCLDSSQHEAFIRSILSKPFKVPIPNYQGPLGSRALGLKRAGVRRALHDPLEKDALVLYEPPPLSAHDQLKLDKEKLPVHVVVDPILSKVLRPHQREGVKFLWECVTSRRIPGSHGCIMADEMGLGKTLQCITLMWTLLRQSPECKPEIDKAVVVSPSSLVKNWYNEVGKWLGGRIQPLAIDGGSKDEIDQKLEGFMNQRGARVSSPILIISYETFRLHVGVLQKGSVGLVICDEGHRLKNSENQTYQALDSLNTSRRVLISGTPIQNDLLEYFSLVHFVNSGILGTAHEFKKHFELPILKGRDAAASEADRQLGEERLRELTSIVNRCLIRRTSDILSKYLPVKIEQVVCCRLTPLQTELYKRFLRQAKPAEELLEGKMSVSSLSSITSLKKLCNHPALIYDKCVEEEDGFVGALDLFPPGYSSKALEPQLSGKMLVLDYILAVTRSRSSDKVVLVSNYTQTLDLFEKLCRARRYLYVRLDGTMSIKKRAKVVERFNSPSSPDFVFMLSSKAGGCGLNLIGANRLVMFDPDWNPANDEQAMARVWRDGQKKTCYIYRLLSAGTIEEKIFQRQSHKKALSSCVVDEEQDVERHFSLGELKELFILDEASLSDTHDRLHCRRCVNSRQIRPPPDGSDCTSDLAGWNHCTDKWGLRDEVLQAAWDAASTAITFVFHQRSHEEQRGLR
# [18] = test system: HEK293; experiment: cells; type: functional, cell-based; details: Homo sapiens
# [19] = test system: HEK293; experiment: NOD2 signaling inhibitors in MDP-stimulated cells, cell-based, uHTS, luminescence (AID 2001); type: functional; details: Homo sapiens
# [20] = test system: HEK293; experiment: cells; type: functional, cell-based; details: Homo sapiens; remark: listed apart in the source
# [21] = test system: HEK293; experiment: cells; type: functional, cell-based; details: Homo sapiens; remark: listed apart in the source
# [22] = test system: HEK293; experiment: NOD1 signaling inhibitors, primary screen, cell-based, luminescence, uHTS (AID 1578); type: functional; details: Homo sapiens
# [23] = target: Nucleotide-binding oligomerization domain-containing protein 2 (Homo sapiens, UniProt Q9HC29); experiment: NOD2 signaling inhibitors, cell-based, luminescence, uHTS, HEK293 (AID 1566); type: functional
# Nucleotide-binding oligomerization domain-containing protein 2, sequence (Q9HC29 whole entry, the tested form may be a part): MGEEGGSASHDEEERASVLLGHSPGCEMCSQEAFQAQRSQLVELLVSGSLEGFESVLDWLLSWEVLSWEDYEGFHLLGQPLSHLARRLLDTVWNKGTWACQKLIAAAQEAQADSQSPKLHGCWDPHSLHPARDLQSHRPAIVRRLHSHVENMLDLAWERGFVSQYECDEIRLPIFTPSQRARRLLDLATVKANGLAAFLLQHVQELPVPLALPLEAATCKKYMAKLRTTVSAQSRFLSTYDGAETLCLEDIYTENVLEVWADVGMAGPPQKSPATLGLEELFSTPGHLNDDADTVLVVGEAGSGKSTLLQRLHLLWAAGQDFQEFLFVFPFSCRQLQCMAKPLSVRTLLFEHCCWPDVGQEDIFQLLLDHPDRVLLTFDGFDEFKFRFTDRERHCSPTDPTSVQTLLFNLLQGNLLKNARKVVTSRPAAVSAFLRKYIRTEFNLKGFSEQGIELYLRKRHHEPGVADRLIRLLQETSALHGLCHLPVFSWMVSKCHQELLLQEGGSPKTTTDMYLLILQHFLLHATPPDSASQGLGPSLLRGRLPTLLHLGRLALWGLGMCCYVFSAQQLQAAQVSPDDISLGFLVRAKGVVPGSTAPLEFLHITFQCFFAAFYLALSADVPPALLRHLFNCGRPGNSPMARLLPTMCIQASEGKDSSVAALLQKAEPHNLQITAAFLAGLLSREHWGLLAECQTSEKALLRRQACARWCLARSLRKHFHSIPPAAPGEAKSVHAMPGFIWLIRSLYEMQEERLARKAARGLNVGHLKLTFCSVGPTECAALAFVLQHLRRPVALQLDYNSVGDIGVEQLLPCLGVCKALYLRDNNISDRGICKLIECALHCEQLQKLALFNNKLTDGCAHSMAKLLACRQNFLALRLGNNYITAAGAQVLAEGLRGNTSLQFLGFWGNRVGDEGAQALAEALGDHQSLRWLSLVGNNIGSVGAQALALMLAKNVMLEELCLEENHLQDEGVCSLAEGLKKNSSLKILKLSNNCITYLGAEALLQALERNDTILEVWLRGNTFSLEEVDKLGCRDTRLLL
# [24] = ARNT/TACC3 interaction disruptors, potency, confirmation, biochemical, AlphaScreen, cherry-picked samples (AID 651703); type: functional, Homo sapiens;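 also: His-tagged ARNT PAS-B domain paired with GST-TACC3 E629A dimer coactivator fragment; potency of inhibitors that break up the complex and lower AlphaScreen signal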
# [25] = growth suppression of PTEN-null colon cells, dose response, cell-based, HCT116 PTEN knockout (AID 1047); type: functional;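 also: HCT116 colon tumor cells with PTEN knocked out; cells exposed to compound for 60 hours before readout; potency for loss of cell viability measured by luminescence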
# [26] = growth suppression of beta-catenin-knockout colon cells, dose response, cell-based, HCT116, human colon tumor (AID 1045); type: functional;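 also: HCT116 colon tumor cells with beta catenin knocked out; cells exposed to compound for 60 hours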
# [27] = target: Hepatocyte nuclear factor 4-alpha (Homo sapiens, UniProt P41235); type: functional, cell-based;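 also: biochemical luminescence-based dose-response counterscreen measuring inhibition of HNF4 dimerization, run alongside a screen for blockers of ABHD5–perilipin-5 interaction; split luciferase complementation of HNF4 fusion proteins in cell lysate measuring dimerization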
# Hepatocyte nuclear factor 4-alpha, sequence (P41235 whole entry, the tested form may be a part): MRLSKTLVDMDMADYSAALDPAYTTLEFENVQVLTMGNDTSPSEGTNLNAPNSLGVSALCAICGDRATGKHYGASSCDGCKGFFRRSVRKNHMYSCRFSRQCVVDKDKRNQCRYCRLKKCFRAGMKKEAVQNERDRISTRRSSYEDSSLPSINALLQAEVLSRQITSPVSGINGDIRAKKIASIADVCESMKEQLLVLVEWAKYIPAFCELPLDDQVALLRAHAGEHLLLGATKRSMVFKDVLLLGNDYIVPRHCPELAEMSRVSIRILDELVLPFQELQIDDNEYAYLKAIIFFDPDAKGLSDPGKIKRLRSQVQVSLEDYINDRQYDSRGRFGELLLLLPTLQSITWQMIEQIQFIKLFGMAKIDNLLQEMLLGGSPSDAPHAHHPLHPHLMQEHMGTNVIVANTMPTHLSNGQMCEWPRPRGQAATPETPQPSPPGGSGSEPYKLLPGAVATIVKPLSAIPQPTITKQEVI
# [28] = target: T7, Low molecular weight phosphotyrosine protein phosphatase (Homo sapiens, UniProt P24666); type: functional; details: read-out: IC50_Mean
# T7 sequence (P24666 whole entry): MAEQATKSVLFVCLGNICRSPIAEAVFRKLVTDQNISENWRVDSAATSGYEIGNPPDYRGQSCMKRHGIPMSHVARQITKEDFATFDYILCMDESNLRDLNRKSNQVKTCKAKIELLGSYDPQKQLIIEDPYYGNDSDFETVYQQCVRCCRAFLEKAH
# [29] = target: T8, Carboxy-terminal domain RNA polymerase II polypeptide A small phosphatase 1 (Homo sapiens, UniProt Q9GZU7); experiment: inhibitors of CTDSP1, concentration-response testing, biochemical assay, absorbance-based, actives from ultra-high-throughput screening (AID 540297); type: functional
# T8 sequence (Q9GZU7 whole entry): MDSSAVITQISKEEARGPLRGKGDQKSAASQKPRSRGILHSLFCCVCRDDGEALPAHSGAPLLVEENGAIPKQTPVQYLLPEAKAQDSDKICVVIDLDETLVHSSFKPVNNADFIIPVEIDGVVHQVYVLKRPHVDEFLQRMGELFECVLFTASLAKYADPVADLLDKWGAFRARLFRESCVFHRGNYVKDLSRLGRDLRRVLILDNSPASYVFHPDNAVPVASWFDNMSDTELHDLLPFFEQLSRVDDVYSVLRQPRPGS
# [30] = target: T7, Low molecular weight phosphotyrosine protein phosphatase; type: functional; details: read-out: IC50_Mean; remark: listed apart in the source
# 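For EC50 Mean in this document: caspase-3 cleavage of fluorogenic Rh110 DEVD substrate downstream of apoptosome activation.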
# Ras and Rab interactor 1/Tyrosine-protein kinase ABL1, sequence (P00519 whole entry): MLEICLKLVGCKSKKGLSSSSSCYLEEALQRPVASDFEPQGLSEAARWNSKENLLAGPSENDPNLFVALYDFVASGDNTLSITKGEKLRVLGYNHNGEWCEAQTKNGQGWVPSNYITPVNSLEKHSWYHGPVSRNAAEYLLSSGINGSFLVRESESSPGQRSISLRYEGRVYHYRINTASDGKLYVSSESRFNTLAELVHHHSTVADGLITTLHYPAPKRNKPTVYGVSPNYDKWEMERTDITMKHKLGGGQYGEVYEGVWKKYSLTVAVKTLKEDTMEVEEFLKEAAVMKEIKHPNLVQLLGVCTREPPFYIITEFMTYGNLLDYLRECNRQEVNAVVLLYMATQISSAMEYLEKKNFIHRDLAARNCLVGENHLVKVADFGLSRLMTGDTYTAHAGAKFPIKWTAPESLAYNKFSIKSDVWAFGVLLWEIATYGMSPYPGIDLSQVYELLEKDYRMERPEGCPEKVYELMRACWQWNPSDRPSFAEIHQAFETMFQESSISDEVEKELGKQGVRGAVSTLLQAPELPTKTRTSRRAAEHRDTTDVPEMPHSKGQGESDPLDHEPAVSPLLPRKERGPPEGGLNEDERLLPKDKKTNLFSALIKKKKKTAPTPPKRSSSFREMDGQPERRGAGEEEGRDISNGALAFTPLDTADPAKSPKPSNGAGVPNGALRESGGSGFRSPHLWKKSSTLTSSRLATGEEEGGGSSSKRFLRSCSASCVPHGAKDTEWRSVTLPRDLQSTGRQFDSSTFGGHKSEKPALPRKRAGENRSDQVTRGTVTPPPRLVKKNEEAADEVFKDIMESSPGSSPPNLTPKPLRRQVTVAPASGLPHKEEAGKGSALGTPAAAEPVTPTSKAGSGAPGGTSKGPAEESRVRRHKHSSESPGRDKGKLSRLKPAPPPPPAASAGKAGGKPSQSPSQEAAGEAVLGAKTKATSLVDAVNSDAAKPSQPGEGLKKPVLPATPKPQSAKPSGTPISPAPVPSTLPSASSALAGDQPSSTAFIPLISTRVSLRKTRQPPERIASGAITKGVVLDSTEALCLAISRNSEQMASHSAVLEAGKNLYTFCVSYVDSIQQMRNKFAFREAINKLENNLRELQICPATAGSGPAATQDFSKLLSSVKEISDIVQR
# Ras and Rab interactor 1/Tyrosine-protein kinase ABL1, sequence (Q13671 whole entry): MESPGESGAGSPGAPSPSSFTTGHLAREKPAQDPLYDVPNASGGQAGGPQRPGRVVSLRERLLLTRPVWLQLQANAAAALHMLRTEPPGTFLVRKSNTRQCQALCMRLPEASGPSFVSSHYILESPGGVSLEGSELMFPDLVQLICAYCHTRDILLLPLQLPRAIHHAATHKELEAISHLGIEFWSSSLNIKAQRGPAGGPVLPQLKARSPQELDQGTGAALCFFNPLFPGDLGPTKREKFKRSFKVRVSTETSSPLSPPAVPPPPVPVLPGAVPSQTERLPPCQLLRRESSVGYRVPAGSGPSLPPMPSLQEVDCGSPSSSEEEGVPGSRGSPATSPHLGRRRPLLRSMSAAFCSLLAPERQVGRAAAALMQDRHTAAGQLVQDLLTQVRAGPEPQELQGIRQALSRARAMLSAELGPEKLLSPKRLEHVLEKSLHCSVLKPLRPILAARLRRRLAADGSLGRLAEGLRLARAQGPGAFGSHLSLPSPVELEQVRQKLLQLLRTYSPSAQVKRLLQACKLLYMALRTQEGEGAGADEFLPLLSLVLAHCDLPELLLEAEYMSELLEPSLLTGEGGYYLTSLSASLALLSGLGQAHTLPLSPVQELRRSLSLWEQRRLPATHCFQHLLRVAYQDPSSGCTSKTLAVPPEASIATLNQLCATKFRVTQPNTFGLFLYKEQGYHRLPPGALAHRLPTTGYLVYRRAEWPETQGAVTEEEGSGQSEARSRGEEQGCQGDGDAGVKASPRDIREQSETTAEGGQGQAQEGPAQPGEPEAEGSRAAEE
compound,measurement,setting,value
CCOC(=O)N1CCN(C(=O)Nc2ccc(NC(=O)N3CCN(C(=O)OCC)CC3)cc2)CC1,IC50,[1],7.81 µM (active)
CC(CNc1ccc(Oc2ccccc2)cc1)C(=O)O (configuration not stated),EC50,[2],> 100 µM (inactive)
CC(=O)Nc1ccc(NC(=O)c2cc(-c3ccc(C)cc3O)n[nH]2)cc1,IC50,[3],13.3 µM (active)
same,IC50,[4],> 66.6 µM (inactive)
COc1ccc(CNc2nn3c(-c4cccc(C(=O)N(C)C)c4)cnc3s2)cc1,IC50,[5],42.1 µM (inactive)
same,IC50,[6],18 µM (inactive)
NC1=NC[C@@H](CC2CCCCC2)N1CCc1cc(C(F)(F)F)cc(C(F)(F)F)c1,IC50,[7],19.6 µM (active)
same,AC50,[8],3.19 µM (active)
same,IC50,[9],11.5 µM (active)
same,AC50,[10],9.92 µM (active)
same,IC50,[11],60.4 µM (active)
same,AC50,[12],7.06 µM (active)
same,IC50,[13],> 20 µM (inactive)
same,AC50,[14],14.7 µM (active)
same,AC50,[15],24.8 µM (active)
CCOC(=O)CCCCCC(=O)Nc1ccc2c(c1)C(=O)N([C@H](C)CO)C[C@@H](C)[C@@H](CN(C)C(=O)CCC(F)(F)F)OCCCC[C@H](C)O2,IC50,[1],3.59 µM (active)
COc1ccc(C(=O)Nc2cc(C)c(NC(=O)c3ccccc3OC)cn2)cc1,AC50,[16],169 µM (active)
same,AC50,[17],100 µM (inactive)
same,IC50,[3],1.48 µM (active)
same,IC50,[4],> 66.6 µM (inactive)
CCCCc1c(C)c(C#N)c2nc3ccccc3n2c1O,IC50,[18],> 20 µM (inactive)
same,IC50,[19],10.8 µM (inactive)
same,IC50,[20],13.1 µM (active)
same,IC50,[11],7.79 µM (active)
same,IC50,[21],> 20 µM (inactive)
same,EC50,[22],4.1 µM (active)
same,EC50,[23],8.9 µM (active)
COc1ccc(C2=NOC3(CC(=O)N(c4ccc(C)cc4)C3=O)C2)cc1 (configuration not stated),EC50,[2],> 100 µM (inactive)
O=C(NCCCn1ccnc1)c1cc2cc([N+](=O)[O-])ccc2oc1=O,AC50,[24],131 µM (active)
CC1=CC(C)(C)Nc2ccc(OC(=O)CN3C(=O)C4CCCCC4C3=O)cc21 (configuration not stated),EC50,[25],7.23 µM (active)
same,EC50,[26],4.74 µM (active)
same,IC50,[27],4.53 µM (active)
COc1ccc(NC(=O)/C(C#N)=C\c2ccc(OCc3ccc(C(=O)O)cc3)c(OC)c2)cc1,IC50,[28],35 µM (inactive)
same,IC50,[29],1.57 µM (active)
same,IC50,[30],31.5 µM (inactive)
CCCCn1c(SCC(=O)NCc2ccco2)nnc1-c1ccoc1C,IC50,[29],6.25 µM (active)
same,IC50,[27],12.9 µM (inactive)
